US10131652B2, “Pyrimidinyloxy benzene derivatives as herbicides” (E. I. DU PONT DE NEMOURS AND COMPANY, priority 2014, dated 2018)
Where two headings read alike, the source gives them in different places.

Columns and labels:
Experiment in all cases: Test E pre-/postemergence plant response
Format in all cases: in vivo
[1] = tested on: chickweed (common chickweed, Stellaria media); settings: scale 0 to 100, read-out: Plant response rating, Chickweed; for pest or weed control at 16 g/ha: 16 g ai/ha; for pest or weed control at 31 g/ha: 31 g ai/ha; for pest or weed control at 62 g/ha: 62 g ai/ha; for pest or weed control at 125 g/ha: 125 g ai/ha
In short: (§1)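 Visual scores on a 0–100 scale (100 = complete control) were assigned against untreated controls 7–21 days after treatment in a controlled environment. Compounds, formulated with solvent plus surfactant, were applied to pre-emergence silt-loam sowings or to 1- to 4-leaf plants (2–18 cm) in potting medium.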

[2] = tested on: spring wheat (Triticum aestivum); settings: post-emergence, Postemergence, scale 0 to 100, read-out: Plant response rating, Wheat, Spring
In short: as §1

[3] = tested on: pigweed (Amaranthus retroflexus); settings: scale 0 to 100, read-out: Plant response rating, Pigweed; for pest or weed control at 16 g/ha: 16 g ai/ha; for pest or weed control at 31 g/ha: 31 g ai/ha; for pest or weed control at 62 g/ha: 62 g ai/ha; for pest or weed control at 125 g/ha: 125 g ai/ha
In short: as §1

[4] = tested on: field violet (Viola arvensis); settings: scale 0 to 100, read-out: Plant response rating, Field Violet; for pest or weed control at 16 g/ha: 16 g ai/ha; for pest or weed control at 31 g/ha: 31 g ai/ha; for pest or weed control at 62 g/ha: 62 g ai/ha; for pest or weed control at 125 g/ha: 125 g ai/ha
In short: as §1

[5] = tested on: Italian ryegrass (Lolium multiflorum); settings: scale 0 to 100, read-out: Plant response rating, Ryegrass, Italian; for pest or weed control at 16 g/ha: 16 g ai/ha; for pest or weed control at 31 g/ha: 31 g ai/ha; for pest or weed control at 62 g/ha: 62 g ai/ha; for pest or weed control at 125 g/ha: 125 g ai/ha
In short: as §1

[6] = tested on: green foxtail (Setaria viridis); settings: scale 0 to 100, read-out: Plant response rating, Foxtail, Green; for pest or weed control at 16 g/ha: 16 g ai/ha; for pest or weed control at 31 g/ha: 31 g ai/ha; for pest or weed control at 62 g/ha: 62 g ai/ha; for pest or weed control at 125 g/ha: 125 g ai/ha
In short: as §1

[7] = tested on: lambsquarters (Chenopodium album); settings: scale 0 to 100, read-out: Plant response rating, Lambsquarters; for pest or weed control at 16 g/ha: 16 g ai/ha; for pest or weed control at 31 g/ha: 31 g ai/ha; for pest or weed control at 62 g/ha: 62 g ai/ha; for pest or weed control at 125 g/ha: 125 g ai/ha
In short: as §1

[8] = tested on: winter barley (Hordeum vulgare); settings: post-emergence, Postemergence, scale 0 to 100, read-out: Plant response rating, Barley, Winter
In short: as §1

[9] = tested on: oilseed rape (Brassica napus); settings: scale 0 to 100, read-out: Plant response rating, Oilseed Rape; for plant injury at 16 g/ha: 16 g ai/ha; for plant injury at 31 g/ha: 31 g ai/ha; for plant injury at 62 g/ha: 62 g ai/ha; for plant injury at 125 g/ha: 125 g ai/ha
In short: as §1

[10] = tested on: galium (catchweed bedstraw, Galium aparine); settings: scale 0 to 100, read-out: Plant response rating, Galium; for pest or weed control at 16 g/ha: 16 g ai/ha; for pest or weed control at 31 g/ha: 31 g ai/ha; for pest or weed control at 62 g/ha: 62 g ai/ha; for pest or weed control at 125 g/ha: 125 g ai/ha
In short: as §1

## FC(F)c1cc(-c2ccccc2Oc2ncc(Cl)cn2)no1 [Compound 35, 5-chloro-2-[2-[5-(difluoromethyl)-3-isoxazolyl]phenoxy]pyrimidine]
[1]; post-emergence, Postemergence
  pest or weed control at 16 g/ha: 65%
  pest or weed control at 31 g/ha: 75%
  pest or weed control at 62 g/ha: 75%
  pest or weed control at 125 g/ha: 100%
[1]; pre-emergence, Preemergence
  pest or weed control at 16 g/ha: 55%
  pest or weed control at 31 g/ha: 100%
  pest or weed control at 62 g/ha: 95%
  pest or weed control at 125 g/ha: 100%
[2]; 16 g ai/ha
  plant injury at 16 g/ha: 0%
[2]; 31 g ai/ha
  plant injury at 31 g/ha: 10%
[2]; 62 g ai/ha
  plant injury at 62 g/ha: 25%
[2]; 125 g ai/ha
  plant injury at 125 g/ha: 40%
[3]; post-emergence, Postemergence
  pest or weed control at 16 g/ha: 85%
  pest or weed control at 31 g/ha: 90%
  pest or weed control at 62 g/ha: 90%
  pest or weed control at 125 g/ha: 90%
[3]; pre-emergence, Preemergence
  pest or weed control at 16 g/ha: 90%
  pest or weed control at 31 g/ha: 95%
  pest or weed control at 62 g/ha: 100%
  pest or weed control at 125 g/ha: 100%
[4]; post-emergence, Postemergence
  pest or weed control at 16 g/ha: 60%
  pest or weed control at 31 g/ha: 65%
  pest or weed control at 62 g/ha: 75%
  pest or weed control at 125 g/ha: 75%
[4]; pre-emergence, Preemergence
  pest or weed control at 16 g/ha: 15%
  pest or weed control at 31 g/ha: 70%
  pest or weed control at 62 g/ha: 90%
  pest or weed control at 125 g/ha: 100%
[5]; post-emergence, Postemergence
  pest or weed control at 16 g/ha: 0%
  pest or weed control at 31 g/ha: 5%
  pest or weed control at 62 g/ha: 25%
  pest or weed control at 125 g/ha: 60%
[5]; pre-emergence, Preemergence
  pest or weed control at 16 g/ha: 0%
  pest or weed control at 31 g/ha: 25%
  pest or weed control at 62 g/ha: 35%
  pest or weed control at 125 g/ha: 75%
[6]; post-emergence, Postemergence
  pest or weed control at 16 g/ha: 20%
  pest or weed control at 31 g/ha: 35%
  pest or weed control at 62 g/ha: 55%
  pest or weed control at 125 g/ha: 55%
[6]; pre-emergence, Preemergence
  pest or weed control at 16 g/ha: 5%
  pest or weed control at 31 g/ha: 90%
  pest or weed control at 62 g/ha: 90%
  pest or weed control at 125 g/ha: 100%
[7]; post-emergence, Postemergence
  pest or weed control at 16 g/ha: 80%
  pest or weed control at 31 g/ha: 80%
  pest or weed control at 62 g/ha: 85%
  pest or weed control at 125 g/ha: 90%
[7]; pre-emergence, Preemergence
  pest or weed control at 16 g/ha: 65%
  pest or weed control at 31 g/ha: 85%
  pest or weed control at 62 g/ha: 90%
  pest or weed control at 125 g/ha: 100%
[8]; 16 g ai/ha
  plant injury at 16 g/ha: 0%
[8]; 31 g ai/ha
  plant injury at 31 g/ha: 0%
[8]; 62 g ai/ha
  plant injury at 62 g/ha: 5%
[8]; 125 g ai/ha
  plant injury at 125 g/ha: 30%
[9]; post-emergence, Postemergence
  plant injury at 16 g/ha: 70%
  plant injury at 31 g/ha: 80%
  plant injury at 62 g/ha: 95%
  plant injury at 125 g/ha: 100%
[9]; pre-emergence, Preemergence
  plant injury at 16 g/ha: 60%
  plant injury at 31 g/ha: 95%
  plant injury at 62 g/ha: 100%
  plant injury at 125 g/ha: 100%
[10]; post-emergence, Postemergence
  pest or weed control at 16 g/ha: 70%
  pest or weed control at 31 g/ha: 80%
  pest or weed control at 62 g/ha: 75%
  pest or weed control at 125 g/ha: 85%
[10]; pre-emergence, Preemergence
  pest or weed control at 16 g/ha: 25%
  pest or weed control at 31 g/ha: 55%
  pest or weed control at 62 g/ha: 100%
  pest or weed control at 125 g/ha: 100%
